Measured values: patent publication US10988523B2, “Modified lipidated Relaxin B chain peptides and their therapeutic use” (Sanofi, priority 2018, dated 2021)
*1 amine or outer side, *2 acyl side, *3 side chain or, on linkers, in order; H or OH if unused. Where a SMILES comes first, the peptide text is derived from it. Side-chain parts run from the residue outwards. [ ]: non-standard residue; d: D form. The star is where a group is joined. X18 = CCCCCCCCCCCCCCCC(=O)N[C@@H](CCC(=O)N[C@@H](CCC(=O)N[C@@H](CCC(=O)NCCCC[C@H](NC(=O)CCC(=O)NCCCOCCOCCOCCCNC(=O)CCC(=O)NCCCOCCOCCOCCCNC(=O)CCC(=O)NCCCOCCOCCOCCCN*)C(N)=O)C(=O)O)C(=O)O)C(=O)O; X14 = CCCCCCCCCCCCCCC(=O)N[C@@H](CCC(=O)N[C@@H](CCC(=O)N[C@@H](CCC(=O)NCCCC[C@H](NC(=O)CCC(=O)NCCCOCCOCCOCCCNC(=O)CCC(=O)NCCCOCCOCCOCCCNC(=O)CCC(=O)NCCCOCCOCCOCCCN*)C(N)=O)C(=O)O)C(=O)O)C(=O)O; X17 = CCCCCCCCCCCCCCC(=O)N[C@@H](CCC(=O)N[C@@H](CCC(=O)N[C@@H](CCC(=O)NCCCOCCOCCOCCCNC(=O)CCC(=O)NCCCOCCOCCOCCCNC(=O)CCC(=O)NCCCOCCOCCOCCCN*)C(=O)O)C(=O)O)C(=O)O; X8 = CCCCCCCCCCCCCCCC(=O)N[C@@H](CCC(=O)N[C@@H](CCC(=O)N[C@@H](CCC(=O)NCCCOCCOCCOCCCNC(=O)CCC(=O)NCCCOCCOCCOCCCNC(=O)CCC(=O)NCCCOCCOCCOCCCN*)C(=O)O)C(=O)O)C(=O)O; γGlu = O=C(O)[C@H](CCC(=O)[*:2])N[*:1]; Pentadecanoyl = CCCCCCCCCCCCCCC(=O)*; Palmitoyl = CCCCCCCCCCCCCCCC(=O)*; Suc = O=C(CCC(=O)[*:2])[*:1]; αMeK = C[C@](N)(CCCCN)C(=O)O; Nle = CCCC[C@H](N)C(=O)O; AEEA = NCCOCCOCC(=O)O; Aib = CC(C)(N)C(=O)O

Biological target: T1, RXFP1 (Homo sapiens, UniProt Q9HBX9)
T1 construct: OVCAR5 cells expressing endogenous RXFP1; endogenous in cells; host or cells: OVCAR5 cells
T1 sequence (Q9HBX9 1-757): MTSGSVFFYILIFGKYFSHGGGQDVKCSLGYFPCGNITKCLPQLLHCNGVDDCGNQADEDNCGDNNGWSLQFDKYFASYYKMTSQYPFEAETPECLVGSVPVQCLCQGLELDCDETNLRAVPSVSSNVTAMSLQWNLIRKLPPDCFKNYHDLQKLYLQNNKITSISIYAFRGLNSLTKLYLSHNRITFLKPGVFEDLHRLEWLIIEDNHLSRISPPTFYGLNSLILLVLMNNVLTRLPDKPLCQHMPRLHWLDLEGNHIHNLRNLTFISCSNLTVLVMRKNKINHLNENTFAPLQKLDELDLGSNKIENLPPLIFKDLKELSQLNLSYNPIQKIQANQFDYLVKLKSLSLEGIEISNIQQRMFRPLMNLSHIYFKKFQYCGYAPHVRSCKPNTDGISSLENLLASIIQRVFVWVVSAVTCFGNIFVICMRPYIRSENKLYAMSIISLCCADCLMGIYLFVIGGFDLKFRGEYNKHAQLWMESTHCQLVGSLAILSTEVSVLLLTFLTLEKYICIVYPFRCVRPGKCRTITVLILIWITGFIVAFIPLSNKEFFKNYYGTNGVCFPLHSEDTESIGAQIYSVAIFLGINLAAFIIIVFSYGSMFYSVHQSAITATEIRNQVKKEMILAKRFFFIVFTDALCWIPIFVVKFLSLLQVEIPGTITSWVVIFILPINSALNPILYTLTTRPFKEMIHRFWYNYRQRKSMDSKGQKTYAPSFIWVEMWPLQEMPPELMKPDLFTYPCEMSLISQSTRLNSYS
Test: OVCAR5 cAMP assay (HTRF), RXFP1 agonist activity
Format: cell-based
Conditions: for EC50: OVCAR5 cells, cAMP HTRF, read-out: EC50 (nM), OVCAR 5 cells (cAMP); for Emax: OVCAR-5, maximal cAMP relative to H2-relaxin maximum (100%), read-out: EMax, OVCAR 5 cells (cAMP)
Summary of the method: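 OVCAR5 cells (endogenous RXFP1) pretreated 40 min at 37° C with 1 mM IBMX, then exposed to peptides in serum-free medium for 30 min at 37° C. Lysate cAMP read by HTRF; EC50 from variable-slope sigmoidal fit; Emax as % of H2-relaxin maximal cAMP in same run.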

Row | Compound | EC50 | Emax
1 | CCCCCCCCCCCCCCC(=O)N[C@@H](CCC(=O)N[C@@H](CCC(=O)N[C@@H](CCC(=O)N[C@@H](CCC(=O)NCCCC[C@H](NC(=O)COCCOCCNC(=O)COCCOCCNC(=O)COCCOCCNC(=O)COCCOCCNC(=O)[C@H](CCCCNC(C)=O)NC(=O)[C@H](C)NC(=O)[C@H](CCCNC(=N)N)NC(=O)[C@](C)(CCCCN)NC(=O)[C@H](CO)NC(=O)[C@H](Cc1ccccc1)NC(=O)[C@@H](NC(=O)[C@H](CO)NC(=O)[C@H](CCC(N)=O)NC(=O)CNC(=O)[C@H](CCC(=O)O)NC(=O)C(C)(C)NC(=O)C(C)(C)NC(=O)[C@@H](NC(=O)[C@H](CCCCNC(C)=O)NC(=O)[C@H](C)NC(=O)[C@H](CCCNC(=N)N)NC(=O)[C@@H](NC(=O)[C@H](CCCCN)NC(=O)[C@H](CCC(=O)O)NC(=O)[C@H](CCCNC(=N)N)NC(=O)CNC(=O)[C@H](CCC(=O)O)NC(=O)[C@H](CC(C)C)NC(C)=O)C(C)C)[C@@H](C)CC)[C@@H](C)O)C(N)=O)C(=O)O)C(=O)O)C(=O)O)C(=O)O [compound 182] (Ac-LEGREKVRAK(Ac)I[Aib][Aib]EGQSTFS[αMeK]RAK(Ac)[AEEA][AEEA][AEEA][AEEA]K([γGlu-γGlu-γGlu-γGlu-Pentadecanoyl])-NH2) | 0.19 nM | 99%
2 | CCCCCCCCCCCCCCCC(=O)N[C@@H](CCC(=O)N[C@@H](CCC(=O)NCCCC[C@H](NC(=O)CC[C@H](NC(=O)CC[C@H](NC(=O)COCCOCCNC(=O)COCCOCCNC(=O)COCCOCCNC(=O)COCCOCCNC(=O)[C@H](CCCCNC(C)=O)NC(=O)[C@H](C)NC(=O)[C@H](CCCNC(=N)N)NC(=O)[C@](C)(CCCCN)NC(=O)[C@H](CO)NC(=O)[C@H](Cc1ccccc1)NC(=O)[C@@H](NC(=O)[C@H](CO)NC(=O)[C@H](CCC(N)=O)NC(=O)CNC(=O)[C@H](CCC(=O)O)NC(=O)C(C)(C)NC(=O)C(C)(C)NC(=O)[C@@H](NC(=O)[C@H](CCCCNC(C)=O)NC(=O)[C@H](C)NC(=O)[C@H](CCCNC(=N)N)NC(=O)[C@@H](NC(=O)[C@H](CCCCN)NC(=O)[C@H](CCC(=O)O)NC(=O)[C@H](CCCNC(=N)N)NC(=O)CNC(=O)[C@H](CCC(=O)O)NC(=O)[C@H](CC(C)C)NC(C)=O)C(C)C)[C@@H](C)CC)[C@@H](C)O)C(=O)O)C(=O)O)C(N)=O)C(=O)O)C(=O)O [compound 185] (Ac-LEGREKVRAK(Ac)I[Aib][Aib]EGQSTFS[αMeK]RAK(Ac)[AEEA][AEEA][AEEA][AEEA][γGlu][γGlu]K([γGlu-γGlu-Palmitoyl])-NH2) | 0.05 nM | 100%
3 | CCCCCCCCCCCCCCC(=O)N[C@@H](CCC(=O)N[C@@H](CCC(=O)NCCCC[C@H](NC(=O)CC[C@H](NC(=O)CC[C@H](NC(=O)COCCOCCNC(=O)COCCOCCNC(=O)COCCOCCNC(=O)COCCOCCNC(=O)[C@H](CCCCNC(C)=O)NC(=O)[C@H](C)NC(=O)[C@H](CCCNC(=N)N)NC(=O)[C@](C)(CCCCN)NC(=O)[C@H](CO)NC(=O)[C@H](Cc1ccccc1)NC(=O)[C@@H](NC(=O)[C@H](CO)NC(=O)[C@H](CCC(N)=O)NC(=O)CNC(=O)[C@H](CCC(=O)O)NC(=O)C(C)(C)NC(=O)C(C)(C)NC(=O)[C@@H](NC(=O)[C@H](CCCCNC(C)=O)NC(=O)[C@H](C)NC(=O)[C@H](CCCNC(=N)N)NC(=O)[C@@H](NC(=O)[C@H](CCCCN)NC(=O)[C@H](CCC(=O)O)NC(=O)[C@H](CCCNC(=N)N)NC(=O)CNC(=O)[C@H](CCC(=O)O)NC(=O)[C@H](CC(C)C)NC(C)=O)C(C)C)[C@@H](C)CC)[C@@H](C)O)C(=O)O)C(=O)O)C(N)=O)C(=O)O)C(=O)O [compound 186] (Ac-LEGREKVRAK(Ac)I[Aib][Aib]EGQSTFS[αMeK]RAK(Ac)[AEEA][AEEA][AEEA][AEEA][γGlu][γGlu]K([γGlu-γGlu-Pentadecanoyl])-NH2) | 0.18 nM | 100%

Further lines, results first:

Row | EC50 | Emax | Compound
4 | 0.08 nM | 94% | CCCCCCCCCCCCCCCC(=O)N[C@@H](CCC(=O)N[C@@H](CCC(=O)N[C@@H](CCC(=O)NCCCOCCOCCOCCCNC(=O)CCC(=O)NCCCOCCOCCOCCCNC(=O)CCC(=O)NCCCOCCOCCOCCCNC(=O)CCC(=O)NCCCC[C@H](NC(=O)[C@H](CCCCNC(C)=O)NC(=O)[C@H](C)NC(=O)[C@H](CCCNC(=N)N)NC(=O)[C@](C)(CCCCN)NC(=O)[C@H](CO)NC(=O)[C@H](Cc1ccccc1)NC(=O)[C@@H](NC(=O)[C@H](CO)NC(=O)[C@H](CCCC)NC(=O)CNC(=O)[C@H](CCC(=O)O)NC(=O)C(C)(C)NC(=O)C(C)(C)NC(=O)[C@@H](NC(=O)[C@H](CCCCNC(C)=O)NC(=O)[C@H](C)NC(=O)[C@H](CCCNC(=N)N)NC(=O)[C@@H](NC(=O)[C@H](CCCCN)NC(=O)[C@H](CCC(=O)O)NC(=O)[C@H](CCCNC(=N)N)NC(=O)CNC(=O)[C@H](CCC(=O)O)NC(=O)[C@H](CC(C)C)NC(C)=O)C(C)C)[C@@H](C)CC)[C@@H](C)O)C(N)=O)C(=O)O)C(=O)O)C(=O)O [compound 183] (Ac-LEGREKVRAK(Ac)I[Aib][Aib]EG[Nle]STFS[αMeK]RAK(Ac)K([Suc-X8])-NH2)
5 | – | 100% | CCCCCCCCCCCCCCCC(=O)N[C@@H](CCC(=O)N[C@@H](CCC(=O)N[C@@H](CCC(=O)NCCCC[C@H](NC(=O)CCC(=O)NCCCOCCOCCOCCCNC(=O)CCC(=O)NCCCOCCOCCOCCCNC(=O)CCC(=O)NCCCOCCOCCOCCCNC(=O)[C@H](CCCCNC(C)=O)NC(=O)[C@H](C)NC(=O)[C@H](CCCNC(=N)N)NC(=O)[C@](C)(CCCCN)NC(=O)[C@H](CO)NC(=O)[C@H](Cc1ccccc1)NC(=O)[C@@H](NC(=O)[C@H](CO)NC(=O)[C@H](CCCC)NC(=O)CNC(=O)[C@H](CCC(=O)O)NC(=O)C(C)(C)NC(=O)C(C)(C)NC(=O)[C@@H](NC(=O)[C@H](CCCCNC(C)=O)NC(=O)[C@H](C)NC(=O)[C@H](CCCNC(=N)N)NC(=O)[C@@H](NC(=O)[C@H](CCCCN)NC(=O)[C@H](CCC(=O)O)NC(=O)[C@H](CCCNC(=N)N)NC(=O)CNC(=O)[C@H](CCC(=O)O)NC(=O)[C@H](CC(C)C)NC(C)=O)C(C)C)[C@@H](C)CC)[C@@H](C)O)C(N)=O)C(=O)O)C(=O)O)C(=O)O [compound 187] (Ac-LEGREKVRAK(Ac)I[Aib][Aib]EG[Nle]STFS[αMeK]RAK(Ac)-X18)
6 | – | 100% | CCCCCCCCCCCCCCC(=O)N[C@@H](CCC(=O)N[C@@H](CCC(=O)N[C@@H](CCC(=O)NCCCC[C@H](NC(=O)CCC(=O)NCCCOCCOCCOCCCNC(=O)CCC(=O)NCCCOCCOCCOCCCNC(=O)CCC(=O)NCCCOCCOCCOCCCNC(=O)[C@H](CCCCNC(C)=O)NC(=O)[C@H](C)NC(=O)[C@H](CCCNC(=N)N)NC(=O)[C@](C)(CCCCN)NC(=O)[C@H](CO)NC(=O)[C@H](Cc1ccccc1)NC(=O)[C@@H](NC(=O)[C@H](CO)NC(=O)[C@H](CCCC)NC(=O)CNC(=O)[C@H](CCC(=O)O)NC(=O)C(C)(C)NC(=O)C(C)(C)NC(=O)[C@@H](NC(=O)[C@H](CCCCNC(C)=O)NC(=O)[C@H](C)NC(=O)[C@H](CCCNC(=N)N)NC(=O)[C@@H](NC(=O)[C@H](CCCCN)NC(=O)[C@H](CCC(=O)O)NC(=O)[C@H](CCCNC(=N)N)NC(=O)CNC(=O)[C@H](CCC(=O)O)NC(=O)[C@H](CC(C)C)NC(C)=O)C(C)C)[C@@H](C)CC)[C@@H](C)O)C(N)=O)C(=O)O)C(=O)O)C(=O)O [compound 188] (Ac-LEGREKVRAK(Ac)I[Aib][Aib]EG[Nle]STFS[αMeK]RAK(Ac)-X14)
7 | – | 100% | CCCCCCCCCCCCCCC(=O)N[C@@H](CCC(=O)N[C@@H](CCC(=O)N[C@@H](CCC(=O)NCCCOCCOCCOCCCNC(=O)CCC(=O)NCCCOCCOCCOCCCNC(=O)CCC(=O)NCCCOCCOCCOCCCNC(=O)CCC(=O)NCCCC[C@H](NC(=O)[C@H](CCCCNC(C)=O)NC(=O)[C@H](C)NC(=O)[C@H](CCCNC(=N)N)NC(=O)[C@](C)(CCCCN)NC(=O)[C@H](CO)NC(=O)[C@H](Cc1ccccc1)NC(=O)[C@@H](NC(=O)[C@H](CO)NC(=O)[C@H](CCC(N)=O)NC(=O)CNC(=O)[C@H](CCC(=O)O)NC(=O)C(C)(C)NC(=O)C(C)(C)NC(=O)[C@@H](NC(=O)[C@H](CCCCNC(C)=O)NC(=O)[C@H](C)NC(=O)[C@H](CCCNC(=N)N)NC(=O)[C@@H](NC(=O)[C@H](CCCCN)NC(=O)[C@H](CCC(=O)O)NC(=O)[C@H](CCCNC(=N)N)NC(=O)CNC(=O)[C@H](CCC(=O)O)NC(=O)[C@H](CC(C)C)NC(C)=O)C(C)C)[C@@H](C)CC)[C@@H](C)O)C(N)=O)C(=O)O)C(=O)O)C(=O)O [compound 189] (Ac-LEGREKVRAK(Ac)I[Aib][Aib]EGQSTFS[αMeK]RAK(Ac)K([Suc-X17])-NH2)
